According to US11964052B2, “Lipid compounds and lipid nanoparticle compositions” (SUZHOU ABOGEN BIOSCIENCES CO., LTD., priority 2021, dated 2024):

Tests used:
Type in all cases: physicochemical
[1] = Lipid nanoparticle size and polydispersity by dynamic light scattering (Malvern Zetasizer Nano ZS); conditions: LNP of cationic lipid/DSPC/cholesterol/PEG-lipid 50:10:38.5:1.5 with mRNA
How it was run: (§1)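 LNPs of cationic lipid:DSPC:cholesterol:PEG-lipid (50:10:38.5:1.5 molar) with mRNA in 10–50 mM citrate pH 4, microfluidic mixing at 1:3 ethanol:aqueous, lipid:mRNA weight ratio ~10:1–30:1, dialysed into DPBS and 0.2 μm filtered. Size by DLS, 173° backscatter; encapsulation efficiency by Ribogreen assay.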

[2] = Encapsulation efficiency of lipid nanoparticles, Quant-it Ribogreen RNA quantification assay; conditions: LNP with mRNA
How it was run: as §1

[3] = Apparent pKa of LNP formulations, TNS fluorescence assay; conditions: LNP cationic lipid/DSPC/cholesterol/DMG-PEG 50/10/38.5/1.5 mol %, pH 3 to 9
How it was run: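 LNPs (cationic lipid/DSPC/cholesterol/DMG-PEG 50/10/38.5/1.5 mol %) at 0.1 mg/ml total lipid in citrate/phosphate/borate buffers, pH 3–9, with TNS added; fluorescence read at room temperature (ex 325, em 435 nm). Apparent pKa is the pH giving half-maximal fluorescence from a sigmoidal fit.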

SMILES | polydispersity [1] | size (nm) [1] [nm] | Encapsulation Efficiency [2] [%] | Apparant Pka [3]
CCCCCCCCC(CCCCCC)COC(=O)CCOCC(CN(CCC)CCN(CCO)C1CCCCCC1)OCCC(=O)OCC(CCCCCC)CCCCCCCC (stereo not shown) [Compound 106] | 0.046 | 65.31 | 93.17 | 6.035
CCCCCCCCC(CCCCCC)CC(=O)OCC(CCCCN(CCN(CCO)CCCC)C1CCC1)COC(=O)CC(CCCCCC)CCCCCCCC (stereo not shown) [Compound 109] | 0.011 | 74 | 92.59 | 6.204
CCCCCCCCC(CCCCCC)CC(=O)OCC(CCCCN(CCN(CCO)CCCCC)C1CCC1)COC(=O)CC(CCCCCC)CCCCCCCC (stereo not shown) [Compound 110] | 0.038 | 75.71 | 92.71 | 6.147
CCCCCCCCC(CCCCCC)CC(=O)OCC(CCCCN(CCN(CCO)CCCCCC)C1CCC1)COC(=O)CC(CCCCCC)CCCCCCCC (stereo not shown) [Compound 111] | 0.048 | 62.77 | 92.54 | 6.072
